Where a SMILES comes first, the peptide text is derived from it. [ ]: non-standard residue; d: D form. The star is where a group is joined. Desaminotyrosyl = O=C(CCc1ccc(O)cc1)*; Nle = CCCC[C@H](N)C(=O)O; Ac5c = NC1(C(=O)O)CCCC1; Aib = CC(C)(N)C(=O)O
Target: T1, human recombinant GIP receptor (Homo sapiens, UniProt P48546)
T1 construct: expressed in transfected cells; host or cells: CHO-K1 clonal cells (membrane preparation)
T1 sequence (P48546 22-466): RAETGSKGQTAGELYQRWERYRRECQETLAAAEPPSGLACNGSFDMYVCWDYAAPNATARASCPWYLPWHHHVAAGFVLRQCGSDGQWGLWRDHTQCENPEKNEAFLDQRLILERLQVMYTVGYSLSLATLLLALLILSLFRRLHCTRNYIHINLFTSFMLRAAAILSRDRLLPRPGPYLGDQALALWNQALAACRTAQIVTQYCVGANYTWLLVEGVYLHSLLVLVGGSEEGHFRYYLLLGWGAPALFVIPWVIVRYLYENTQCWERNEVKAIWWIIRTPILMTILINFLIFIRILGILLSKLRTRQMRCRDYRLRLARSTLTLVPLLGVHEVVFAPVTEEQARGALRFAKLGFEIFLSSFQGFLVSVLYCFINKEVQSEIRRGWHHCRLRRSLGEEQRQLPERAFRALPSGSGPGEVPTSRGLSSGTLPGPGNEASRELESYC
Assay: In vitro hGIP receptor binding assay
Experimental: A. In Vitro hGIP Receptor Binding Assay […] The incubations were terminated by rapid filtration through GF/C filters (pre-soaked in 0.5% polyethylenimine) using a Brandel filtration manifold. Each tube and filter were then washed three times with 5-ml aliquots of ice-cold buffer.

Structure (SMILES) | Ki [nM]
CCCC[C@H](NC(=O)[C@H](C)NC(=O)[C@@H](NC(=O)[C@H](CO)NC(=O)[C@H](Cc1ccc(O)cc1)NC(=O)[C@H](CC(=O)O)NC(=O)[C@H](CO)NC(=O)C1(NC(=O)[C@H](Cc2ccccc2)NC(=O)[C@@H](NC(=O)CNC(=O)[C@H](CCC(=O)O)NC(=O)C(C)(C)NC(=O)CCc2ccc(O)cc2)[C@@H](C)O)CCCC1)[C@@H](C)CC)C(=O)N[C@@H](CC(=O)O)C(=O)N[C@@H](CCCCN)C(=O)N[C@H](C(=O)N[C@@H](Cc1c[nH]cn1)C(=O)N[C@@H](CCC(N)=O)C(=O)N[C@@H](CCC(N)=O)C(=O)N[C@@H](CC(=O)O)C(=O)N[C@@H](Cc1ccccc1)C(=O)N[C@H](C(=O)N[C@@H](CC(N)=O)C(=O)N[C@@H](Cc1c[nH]c2ccccc12)C(=O)N[C@@H](CC(C)C)C(=O)N[C@@H](CC(C)C)C(=O)N[C@@H](C)C(=O)N[C@@H](CCC(N)=O)C(=O)N[C@@H](CCCCN)C(N)=O)C(C)C)[C@@H](C)CC [Example 1, (4Hppa^1, Aib^2, A5c^7, Nle^14)hGIP(1-30)-NH2] (Desaminotyrosyl-[Aib]EGTF[Ac5c]SDYSIA[Nle]DKIHQQDFVNWLLAQK-NH2) | 12.6
CCCC[C@H](NC(=O)[C@H](C)NC(=O)[C@@H](NC(=O)C(C)(C)NC(=O)[C@H](Cc1ccc(O)cc1)NC(=O)[C@H](CC(=O)O)NC(=O)[C@H](CO)NC(=O)[C@@H](NC(=O)[C@H](Cc1ccccc1)NC(=O)[C@@H](NC(=O)CNC(=O)[C@H](CCC(=O)O)NC(=O)C(C)(C)NC(=O)CCc1ccc(O)cc1)[C@@H](C)O)[C@@H](C)CC)[C@@H](C)CC)C(=O)N[C@@H](CC(=O)O)C(=O)N[C@@H](CCCCN)C(=O)N[C@H](C(=O)N[C@@H](Cc1c[nH]cn1)C(=O)N[C@@H](CCC(N)=O)C(=O)N[C@@H](CCC(N)=O)C(=O)N[C@@H](CC(=O)O)C(=O)N[C@@H](Cc1ccccc1)C(=O)N[C@H](C(=O)N[C@@H](CC(N)=O)C(=O)N[C@@H](Cc1c[nH]c2ccccc12)C(=O)N[C@@H](CC(C)C)C(=O)N[C@@H](CC(C)C)C(=O)N[C@@H](C)C(=O)N[C@@H](CCC(N)=O)C(=O)N[C@@H](CCCCN)C(N)=O)C(C)C)[C@@H](C)CC [Example 2, (4Hppa^1, Aib^2,11, Nle^14)hGIP(1-30)-NH2] (Desaminotyrosyl-[Aib]EGTFISDY[Aib]IA[Nle]DKIHQQDFVNWLLAQK-NH2) | 20.3
CC[C@H](C)[C@H](NC(=O)[C@H](CO)NC(=O)[C@H](Cc1ccc(O)cc1)NC(=O)[C@H](CC(=O)O)NC(=O)[C@H](CO)NC(=O)C1(NC(=O)[C@H](Cc2ccccc2)NC(=O)[C@@H](NC(=O)CNC(=O)[C@H](CCC(=O)O)NC(=O)C(C)(C)NC(=O)CCc2ccc(O)cc2)[C@@H](C)O)CCCC1)C(=O)N[C@@H](C)C(=O)N[C@@H](CCSC)C(=O)N[C@@H](CC(=O)O)C(=O)N[C@@H](CCCCN)C(=O)N[C@H](C(=O)N[C@@H](Cc1c[nH]cn1)C(=O)N[C@@H](CCC(N)=O)C(=O)N[C@@H](CCC(N)=O)C(=O)N[C@@H](CC(=O)O)C(=O)N[C@@H](Cc1ccccc1)C(=O)N[C@H](C(=O)N[C@@H](CC(N)=O)C(=O)N[C@@H](Cc1c[nH]c2ccccc12)C(=O)N[C@@H](CC(C)C)C(=O)N[C@@H](CC(C)C)C(=O)N[C@@H](C)C(=O)N[C@@H](CCC(N)=O)C(=O)N[C@@H](CCCCN)C(N)=O)C(C)C)[C@@H](C)CC [Example 3, (4Hppa^1, Aib^2, A5c^7)hGIP(1-30)-NH2] | 5
CC[C@H](C)[C@H](NC(=O)[C@H](CCCCN)NC(=O)[C@H](CC(=O)O)NC(=O)[C@H](CCSC)NC(=O)[C@H](C)NC(=O)[C@@H](NC(=O)C(C)(C)NC(=O)[C@H](Cc1ccc(O)cc1)NC(=O)[C@H](CC(=O)O)NC(=O)[C@H](CO)NC(=O)[C@@H](NC(=O)[C@H](Cc1ccccc1)NC(=O)[C@@H](NC(=O)CNC(=O)[C@H](CCC(=O)O)NC(=O)C(C)(C)NC(=O)CCc1ccc(O)cc1)[C@@H](C)O)[C@@H](C)CC)[C@@H](C)CC)C(=O)N[C@@H](Cc1c[nH]cn1)C(=O)N[C@@H](CCC(N)=O)C(=O)N[C@@H](CCC(N)=O)C(=O)N[C@@H](CC(=O)O)C(=O)N[C@@H](Cc1ccccc1)C(=O)N[C@H](C(=O)N[C@@H](CC(N)=O)C(=O)N[C@@H](Cc1c[nH]c2ccccc12)C(=O)N[C@@H](CC(C)C)C(=O)N[C@@H](CC(C)C)C(=O)N[C@@H](C)C(=O)N[C@@H](CCC(N)=O)C(=O)N[C@@H](CCCCN)C(N)=O)C(C)C [Example 4, (4Hppa^1, Aib^2,11)hGIP(1-30)-NH2] (Desaminotyrosyl-[Aib]EGTFISDY[Aib]IAMDKIHQQDFVNWLLAQK-NH2) | 15.4
CC[C@H](C)[C@H](NC(=O)[C@H](CO)NC(=O)[C@H](Cc1ccc(O)cc1)NC(=O)[C@H](CC(=O)O)NC(=O)[C@H](CO)NC(=O)[C@@H](NC(=O)[C@H](Cc1ccccc1)NC(=O)[C@@H](NC(=O)CNC(=O)[C@H](CCC(=O)O)NC(=O)C(C)(C)NC(=O)CCc1ccc(O)cc1)[C@@H](C)O)[C@@H](C)CC)C(=O)N[C@@H](C)C(=O)N[C@@H](CCSC)C(=O)N[C@@H](CC(=O)O)C(=O)N[C@@H](CCCCN)C(=O)N[C@H](C(=O)N[C@@H](Cc1c[nH]cn1)C(=O)N[C@@H](CCC(N)=O)C(=O)N[C@@H](CCC(N)=O)C(=O)N[C@@H](CC(=O)O)C(=O)N[C@@H](Cc1ccccc1)C(=O)N[C@H](C(=O)N[C@@H](CC(N)=O)C(=O)N[C@@H](Cc1c[nH]c2ccccc12)C(=O)N[C@@H](CC(C)C)C(=O)N[C@@H](CC(C)C)C(=O)N[C@@H](C)C(=O)N[C@@H](CCC(N)=O)C(=O)N[C@@H](CCCCN)C(N)=O)C(C)C)[C@@H](C)CC [Example 6, (4Hppa^1, Aib^2)hGIP(1-30)-NH2] | 1.58
CCCC[C@H](NC(=O)[C@H](C)NC(=O)[C@@H](NC(=O)C1(NC(=O)[C@H](Cc2ccc(O)cc2)NC(=O)[C@H](CC(=O)O)NC(=O)[C@H](CO)NC(=O)[C@@H](NC(=O)[C@H](Cc2ccccc2)NC(=O)[C@@H](NC(=O)CNC(=O)[C@H](CCC(=O)O)NC(=O)C(C)(C)NC(=O)[C@@H](N)Cc2ccc(O)c(Br)c2)[C@@H](C)O)[C@@H](C)CC)CCCC1)[C@@H](C)CC)C(=O)N[C@@H](CC(=O)O)C(=O)N[C@@H](CCCCN)C(=O)N[C@H](C(=O)N[C@@H](Cc1c[nH]cn1)C(=O)N[C@@H](CCC(N)=O)C(=O)N[C@@H](CCC(N)=O)C(=O)N[C@@H](CC(=O)O)C(=O)N[C@@H](Cc1ccccc1)C(=O)N[C@H](C(=O)N[C@@H](CC(N)=O)C(=O)N[C@@H](Cc1c[nH]c2ccccc12)C(=O)N[C@@H](CC(C)C)C(=O)N[C@@H](CC(C)C)C(=O)N[C@@H](C)C(=O)N[C@@H](CCC(N)=O)C(=O)N[C@@H](CCCCN)C(=O)NCC(=O)N[C@@H](CCCCN)C(=O)N[C@@H](CCCCN)C(=O)N[C@@H](CC(N)=O)C(=O)N[C@@H](CC(=O)O)C(=O)N[C@@H](Cc1c[nH]c2ccccc12)C(=O)N[C@@H](CCCCN)C(=O)N[C@@H](Cc1c[nH]cn1)C(=O)N[C@@H](CC(N)=O)C(=O)N[C@H](C(=O)N[C@H](C(=O)N[C@@H](CCC(N)=O)C(=O)N[C@@H](Cc1c[nH]cn1)C(=O)O)[C@@H](C)O)[C@@H](C)CC)C(C)C)[C@@H](C)CC [Example 71, (3Br-Tyr^1, Aib^2, A5c^11, Nle^14, His^43)hGIP(1-43)-OH] | 1.09

From patent publication US8999940B2 (Ipsen Pharma S.A.S., priority 2008, dated 2015)
